Read-outs that look alike come from different tables or passages of the source.
Tests used:
[1] = tested on: peripheral nasal chemosensory receptors; conditions: androstadienone 27 picograms, muricin aglycone 30 picograms; adapted from Monti-Bloch et al. (1994); cited from earlier work
humans = conditions: Grosser et al., 2000, cited from earlier work; for Effect on negative affect / negativity: administered nasally to humans

| SMILES | melting point | Depolarization of the electrogram of peripheral nasal chemosensory receptors [1] | Effect on negative affect / negativity (humans) | Effect on negative affect / negativity (humans; listed as Androsta-4,16-dien-3-one) | Effect on social warmth and friendliness, personal well-being and arousal/excitement (humans; humans) |
| --- | --- | --- | --- | --- | --- |
| C=C[C@H]1CC[C@H]2[C@@H]3CC[C@H]4CC(=O)C=C[C@]4(C)[C@H]3CC[C@]12C | 124 to 126 °C |  |  |  |  |
| C[C@@]12C=CC[C@H]1[C@@H]1CCC3=CC(=O)CC[C@]3(C)[C@H]1CC2 [androstadienone, androsta-4,16-dien-3-one] |  | robust depolarization | decreased negativity | reduction of negative affect | no effect |

Source: patent publication US20140045805A1, “Fragrance Compositions and Other Compositions Which Contain Naturally Occurring Substances Found in Corals” (priority 2007, published 2014)
